For data set [1], the system named is Mycolicibacterium smegmatis. Briefly: Anti-mycobacterial activity against Mycobacterium smegmatis assessed as bacterial growth inhibition after 24 hrs by microplate reader analysis. The format is functional, organism-based.
The test system of the next data set is MDCK. In words: Cytotoxicity against dog MDCK cells at 50 uM after 1 day by WST-8 assay. To be noted: 24 h. Type of data set: cell-based, Canis lupus familiaris.
A further data set deals with SH-SY5Y. In words: Cytotoxicity against human SH-SY5Y cells at 50 uM after 2 days by WST-8 assay. As to conditions: 48 h. Type of data set: cell-based. In general terms: Formazan colour is commonly taken as a measure of viable cells.
The subject of data set [2] is Escherichia coli. Briefly: Toxicity against Escherichia coli JM109 assessed as bacterial growth inhibition at 50 uM after 8 hrs by microplate reader analysis. The format is organism-based. As to conditions: in vivo.
The subject of data set [3] is Mycobacterium tuberculosis. In words: Inhibition of Mycobacterium tuberculosis recombinant InhA assessed as enzyme activity measured as NADH oxidation using 2-trans-decenyl CoA as substrate at 50 uM by TECAN spectrophotometer analysis. More on the design: scale not given: the % may be the effect or the level left.
The subject of data set [4] is Escherichia coli. Briefly: Toxicity against Escherichia coli BL21 assessed as bacterial growth inhibition at 50 uM after 8 hrs by microplate reader analysis.

What is called IC50 is the concentration at which inhibition is half-maximal.

Regarding `NNC(=O)c1ccncc1` [ISONIAZID], in data set [1], the half-maximal inhibitory concentration (IC50) is 9.8 µM.
For the compound `COc1ccc(OCC(=O)N2CCN(Cc3cccc(Oc4ccccc4)c3)CC2)cc1`, the Activity entry was “Non-toxic” in the data set on MDCK; “Toxic” in the data set with SH-SY5Y; “Non-toxic” with Escherichia coli [2]; 44.7% in data set [3]; “Non-toxic” with Escherichia coli [4].
For the compound `O=C(c1ccccc1)N1CCN(Cc2cccc(Oc3ccccc3)c2)CC1`, the Activity entry with MDCK is “Non-toxic”; in the data set on Escherichia coli [2] it was “Non-toxic”; in data set [3], 21.9%; in the data set with Escherichia coli [4], “Non-toxic”. The IC50 in data set [1] was determined as 22.9 µM.
Consider `O=C(O)C(=O)O.O=C(c1cccnc1)N1CCN(Cc2cccc(Oc3ccccc3)c2)CC1`, for which the Activity entry with MDCK was “Non-toxic”; in the data set with Escherichia coli [2], “Non-toxic”; in data set [3], 34%; with Escherichia coli [4], “Non-toxic”.
`COc1ccccc1C(=O)N1CCN(Cc2cccc(Oc3ccccc3)c2)CC1.O=C(O)C(=O)O`: the Activity entry with MDCK was “Non-toxic”; in the data set with Escherichia coli [2], “Non-toxic”; in data set [3], 37.7%; in the data set on Escherichia coli [4], “Non-toxic”. Moreover, in data set [1], the IC50 was 25.7 µM.
Consider `O=C(COc1ccccc1)N1CCN(Cc2cccc(Oc3ccccc3)c2)CC1`, for which the Activity entry in the data set on MDCK was “Non-toxic”; in the data set on Escherichia coli [2], “Non-toxic”; in data set [3], 69.3%; in the data set on Escherichia coli [4], “Non-toxic”. In addition, the IC50 in data set [1] was found to be 21.4 µM.
For `Oc1cc(Cl)ccc1Oc1ccc(Cl)cc1Cl`, the Activity in data set [3] was found to be 16.3%.
Take `COc1cccc(C(=O)N2CCN(Cc3cccc(Oc4ccccc4)c3)CC2)c1OC`: the Activity result with MDCK was “Non-toxic”; in the data set on Escherichia coli [2] it was “Non-toxic”; in data set [3], 65.1%; with Escherichia coli [4], “Non-toxic”. Besides, the IC50 in data set [1] worked out at 28.1 µM.
As to `O=C(Cc1ccccc1)N1CCN(Cc2cccc(Oc3ccccc3)c2)CC1`, the Activity entry in the data set with MDCK is “Non-toxic”; in the data set with Escherichia coli [2], “Non-toxic”; in data set [3], 65.6%; in the data set on Escherichia coli [4], “Non-toxic”.
For the compound `O=C(O)C(=O)O.O=C(c1ccccc1F)N1CCN(Cc2cccc(Oc3ccccc3)c2)CC1`, the Activity result with MDCK was “Non-toxic”; with Escherichia coli [2], “Non-toxic”; in data set [3] it was 21.9%; in the data set on Escherichia coli [4], “Non-toxic”. Also, in data set [1], the half-inhibitory concentration (IC50) was found to be 17.3 µM.
Regarding `O=C(c1ccco1)N1CCN(Cc2cccc(Oc3ccccc3)c2)CC1`, in data set [1], the 50% inhibitory concentration (IC50) came out at 12 µM. For the same compound, the Activity in data set [3] amounted to 65.1%.
On to `Sc1nnc(-c2ccco2)n1/N=C/c1cccc(Oc2ccccc2)c1`, for which the Activity entry in the data set on MDCK is “Non-toxic”; in the data set on Escherichia coli [2], “Non-toxic”; in data set [3], 53.5%; in the data set on Escherichia coli [4], “Non-toxic”.
In the case of `O=C(c1cccc(Oc2ccccc2)c1)N1CCN(C(=O)c2ccco2)CC1`, the Activity result in the data set on MDCK is “Non-toxic”; with Escherichia coli [2], “Non-toxic”; in data set [3] it was 69.3%; in the data set with Escherichia coli [4], “Non-toxic”.

The values above are taken from ChEMBL document CHEMBL3576853, “Discovery of InhA inhibitors with anti-mycobacterial activity through a matched molecular pair approach” (Eur J Med Chem, 2015).
